Measured values published in patent publication EP1293213A1, “PREVENTIVES/REMEDIES FOR POSTOPERATIVE STRESS” (Japan Tobacco Inc., priority 2000, dated 2001).

Key:
[1] = tested on: adrenocorticotropic hormone(ACTH); assay: Experiment 2: Model of surgical stress in mouse (inhibitory action of rise in releasing of ACTH); assay type: in vivo; details: ddY male mice, intravenous, surgical stress (abdominal incision, bowel draped externally)
Protocol: Experiment 2: Model of surgical stress in mouse (Inhibitory action of rise in releasing of adrenocorticotropic hormone(ACTH))
(§1) ddY male mice(SLC, 7 to 8 weeks of age: weight 34 to 42g)were used for experiments. Mice were housed before use under controlled lighting condition (12hours light and 12hours dark cycle(lights on from 8:00 to 20:00) at 23±3 °C and 55±15% humidity, and maintained with basal diet and water ad labium. On the experimental day, mice were moved to experimental room and habituated before experiment for more than 1 hour. On the day before experiment, mice were previously handled (by being fastened up for 10 to 15 seconds like the case of i.p. injections) to habituate to the stress caused by handling.
Medicine and administration:
Test compound to be evaluated was dissolved in and diluted with physiological saline(Otsuka), 5% mannitol or 0.1N NaHCO3/saline. Then the test sample solution was given into veins of mice at a dose of 10ml/Kg body weight. The same solvent alone mentioned above was given into veins of control mice group at a dose of 10ml/Kg weight.
Mice were anesthetized by injection of pentobarbital Na (2.5mg/mouse i.p.) and after 15 minutes the solvent alone or the solution containing test sample to be evaluated were intravenously injected on the tails of mice at a dose of 10ml/ Kg weight of mouse. After more 10 minutes a midline incision was made in the abdomen and in two minutes bowel was draped externally. Then 2.5 minutes after incision 0.6ml of blood samples were collected from main vein abdominalis for 1 minute gradually by using prechilled syringes(needle size 25G), which were wetted with 100mM EDTA solution. Control mice not subjected to surgical stress were decapitated and blood samples were collected at 13 to 14 minutes after medication of solvent alone and to them added 20ul of 100mM EDTA. Blood samples collected were put into siliconized tubes and centrifuged at 10,000rpm and 4°C for 5 minutes. The concentration of ACTH in supernatant was determined by IRMA method using Allegro ACTH kit (Nihon Medi+Physics Co.,Ltd.). […]

[2] = target: T1, CRF type I(CRF-I) receptor (Homo sapiens, UniProt P34998); assay: in vitro Binding Assay using membrane fraction of recombinant cell (6EF2B) expressing CRF receptor gene (SPA method); details: 125I-Tyr0-human/rat CRF, membrane fraction of 6EF2B cells (derived from Hela cell), read-out: IC50(nM) [experiment 1]
T1 construct: expressed in transfected cells; membrane fraction
T1 sequence (P34998 24-415): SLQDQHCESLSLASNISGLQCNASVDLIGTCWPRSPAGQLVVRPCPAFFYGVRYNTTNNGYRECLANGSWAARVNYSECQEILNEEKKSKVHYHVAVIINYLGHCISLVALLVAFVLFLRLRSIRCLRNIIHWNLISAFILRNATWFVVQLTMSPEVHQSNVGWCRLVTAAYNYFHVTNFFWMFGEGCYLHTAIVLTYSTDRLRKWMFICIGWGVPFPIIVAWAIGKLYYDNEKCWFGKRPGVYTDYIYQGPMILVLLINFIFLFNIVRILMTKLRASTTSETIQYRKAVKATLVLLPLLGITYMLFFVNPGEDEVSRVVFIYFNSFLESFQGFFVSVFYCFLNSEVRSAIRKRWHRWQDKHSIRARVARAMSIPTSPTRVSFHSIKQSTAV
Protocol: Experiment 1 : in vitro Binding Assay using membrane fraction of recombinant cell (6EF2B) with expression of CRF receptor gene
Preparation of membrane fraction:
Recombinant cells 6EF2B (derived from Hela cell), which express CRF type I(CRF-I) receptor gene stably, were cultivated in Eagle's MEM medium(10%FCS, 400ug/ml G418.1/100 penicillin/streptomycin). After cultivation, cells were suspended in 50mM Tris-HCl (pH7.2) solution containing 1mM EDTA and incubated at 25°C for 15 to 30 minutes. After that, every step was carried out at 4°C. Treated cells were suspended in 50mM Tris-HCl(pH7.2) containing 10% sucrose and homogenized by a Polytron(PT10-35 model). This step of homogenization was carried out at 25,000 rpm for 15 to 20 seconds and repeated twice or three times. In the course of this step the homogenates were inspected under a microscope. Homogenates were centrifuged at 600 x g for 5 minutes and the supernatant was centrifuged again at 40,000 x g for 30 minutes. The obtained pellet was resuspended in 50mM Tris-HCl(10mM MgCl2, 2mM EGTA) and the suspension was centrifuged again at 40,000 x g for 30minutes. The obtained pellet was used for further experiments as membrane fraction. The membrane fraction was diluted with 50mM Tris-HCl(10mM MgCl2, 2mM EGTA, 0.1%BSA, 100 kallikrein units/ml aprotinin, 0.1mM bacitracin, pH7.2) to have the concentration of 1mg/ml and then stored at -80°C. DC protein assay kit (produced by Bio-RAD) was used to determine the protein concentration of the membrane fraction.
Binding Assay using CRF-I receptor by means of SPA method:
Compounds to be evaluated were stored at the concentration of 10mM in DMSO. […] The assay buffer consisted of 50mM Tris-HCl (pH7.7) containing 100mM NaCl, 5mM KCl, 2mM CaCl2, 0.1% BSA, 0.1% bacitracin, 0.05% FCS and 5% horse serum. The reactions were carried out in 96-well Optiplate(Packard) in which to 50ul of the test substance solution, were added 50ul of WGA-beads & membrane fraction (50 to 100ug membrane fraction/10mg beads/ml) pre-coupled by stirring (rotating with 10rpm) at room temperature for 2 hours on the day of experiment, and 100ul of 0.4nM ^125I-Tyr^0-human/rat CRF(NEX-216, Dupont NEN), to be made up 200ul as total volume, and the mixture was incubated at 25°C for 3 hours. By the way, the step of pre-coupling was carried out by using beads solution (20mg/ml) suspended in 50mM Tris-HCl buffer solution (pH7.2) and after stirring beads were washed twice with Tris-HCl buffer and once with assay buffer by centrifugation (3000 rpm, 5 minutes). In order to measure total binding and non-specific binding activity, assay buffer solution and 1uM(final conc.) cold human /rat CRF(C-3042; SIGMA) solution were used respectively in place of test substance solution. After incubation, the mixture was centrifuged at 23 °C, 2,500 rpm for 5 minutes and the scintillation was counted with Top Count (Packard). An influence of color quench was corrected by standard curve made by using tartrazine as a quencher. Evaluation of samples was carried out several times.

corticosterone(CORT) = assay: Experiment 3: Model of surgical stress in mouse (inhibitory action of rise in releasing of CORT); assay type: in vivo; details: ddY male mice, intravenous, blood 30 minutes after incision
Protocol: Experiment 3: Model of surgical stress in mouse (Inhibitory action of rise in releasing of corticosterone(CORT))
as §1, with “7” for “7 to 8”, “35” for “34”, “41g)were used.” for “42g)were used for experiments.”, “humidity 55±15%,” for “55±15% humidity,”, “day, after mice were weighted, diet was removed from mice just before experiments to eliminate the effects of food intake on experiments. Then,” for “day,”, “handling. Mice were divided into groups according to their weights on the experimental day.” for “handling.”
Medicine applied and method of administration: […]
Mice were anesthetized by injections of pentobarbital Na (2.5mg/mouse i.p.) and after 20 minutes the solvent alone or the solution containing test sample to be evaluated were intravenously injected into the tail veins of mice at a dose of 10ml/Kg weight. […]
The concentration of CORT was determined by using Corticosterone Double Antibody (RIA measurement kit of CORT; ICN Pharmaceuticals, Inc.). […]

SMILES: CCc1cc(S(=O)(=O)N(CC)CC)cc(NC(=O)c2cc(Cl)c([O-])c(Cl)c2)c1OC.[K+] [Example 7, potassium 2,6-dichloro-4-(N-(3-ethyl-5-diethylsulfamoyl-2-methoxyphenyl)carbamoyl)phenoxide]
- Inhibitory action on ACTH release (mg/kg) [experiment 2] [1]: 10 to 30 mg/kg
- IC50 [2]: 263 nM
- Inhibitory action on CORT release (mg/kg) [experiment 3] (corticosterone(CORT)): 10 to 30 mg/kg
